{"source": "patent US5434186A", "about": "“Carboxylic acid leukotriene B4 antagonists” (Hoffmann-La Roche Inc., priority 1993, dated 1995)"}
{"molecular_target": "T1, LTB4 Receptor (Homo sapiens, UniProt Q15722)", "T1 construct": "Isolated human neutrophils in Gey's salt solution; endogenous in cells; host or cells: human neutrophils isolated from blood (90-95% neutrophils)", "T1 sequence (Q15722 whole entry)": "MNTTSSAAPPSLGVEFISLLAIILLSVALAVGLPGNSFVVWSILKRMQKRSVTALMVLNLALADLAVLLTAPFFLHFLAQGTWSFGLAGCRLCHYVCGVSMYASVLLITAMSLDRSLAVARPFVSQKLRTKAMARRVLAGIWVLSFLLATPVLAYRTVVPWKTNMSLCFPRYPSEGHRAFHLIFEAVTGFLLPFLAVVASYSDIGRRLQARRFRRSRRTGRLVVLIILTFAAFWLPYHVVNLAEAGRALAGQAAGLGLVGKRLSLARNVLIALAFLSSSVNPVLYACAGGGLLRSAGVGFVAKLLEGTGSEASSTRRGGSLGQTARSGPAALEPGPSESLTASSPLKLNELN", "test": "LTB4 Receptor Binding Assay (inhibition of 3H-LTB4 binding, human neutrophils)", "conditions": "0.5 nM 3H-LTB4, 45 minutes on ice, isolated human neutrophils", "description": "Binding assays can be performed in microtiter wells. Isolated human neutrophils in Gey's salt solution are incubated on ice for 45 minutes with 0.5 nM ^3 H-LTB4 in the presence or absence of test compounds. Assays are terminated by adding 12 ml ice cold 50 mM Tris (pH 7.4) followed by rapid filtration under vacuum through GF/C filters. Radioactivity is determined by scintillation counting. Non specific binding is defined as the binding not displaced by 100 fold excess of unlabelled LTB4. Specific binding is defined as the difference between total binding and non-specific binding. Non linear analysis of the binding data is performed using LIGAND (Munson and Rodbard, 1980). Ki (Inhibition Constant) values were determined using the Cheng-Prusoff relationship (Cheng and Prusoff, 1973).\nHuman neutrophils are prepared from citrated or heparinized blood. The blood was diluted 1:1 with Hank's balanced salt solution (HBSS) minus calcium and magnesium and underlayed with 10 ml lymphocyte separation medium (Organon Teknika), followed by centrifugation at 500× g for 30 min., at room temperature. Supernatants are removed down to the red blood cell pellet. HBSS minus calcium and magnesium are added to give 25 ml. To this are added 25 ml 6% dextran in 0.85% NaCl. Samples are mixed and allowed to stand 20 min at room temperature. Supernatants are removed and centrifuged at 500× g for 5 min at 4° C. Pellets are resuspended with 20 ml 0.2% saline for 20 sec followed by the addition of 20 ml 1.6% saline. Samples are centrifuged at 500× g for 5 min at 4° C. The lysis is repeated and the cells (90-95% neutrophils) are resuspended at 2× 10^6 cell/ml in GEY's salt solution.", "units": {"Ki": "nM"}}
{"smiles": "CCCc1c(CCCCCCOc2ccccc2CCC(=O)O)ccc2c1OCCC2=O", "note": "[Example 106, 2-[6-(3,4-Dihydro-4-oxo-8-propyl-2H-1-benzopyran-7-yl)hexyloxy]benzenepropanoic Acid]", "Ki": 20}
{"smiles": "CCCc1c(C#CCCCCOc2ccccc2CCC(=O)O)ccc2c1OCCC2=O", "note": "[Example 107, 2-[6-(3,4-Dihydro-4-oxo-8-propyl-2H-1-benzopyran-7-yl)-5-hexynyloxy]benzenepropanoic Acid]", "Ki": 50}
{"smiles": "CCCc1c(OCCCCCCc2ccc(OCCCC(=O)O)cc2/C=C/C(=O)O)ccc2c1OCCC2=O", "note": "[Example 114, (E)-4-[3-(2-carboxyethenyl)-4-[6-[(3,4-dihydro-4-oxo-8-propyl-2H-1-benzopyran-7-yl)oxy]hexyl]phenoxy]butanoic acid]", "Ki": 1}
{"smiles": "CCCc1c(OCCCCCOc2ccccc2/C=C/C(=O)O)ccc2c1OCCC2=O", "note": "[Example 109, (E)-3-[2-[5-[(3,4-Dihydro-4-oxo-8-propyl-2H-1-benzopyran-7-yl)oxy]pentyloxy]phenyl]-2-propenoic Acid]", "Ki": 80}
{"smiles": "CCCc1c(OCCCCCOc2ccc(C(=O)Cc3ccccc3C(=O)O)cc2CCC(=O)O)ccc2c1OCCC2=O", "note": "[Example 92, 5-[2-(2-Carboxyphenyl)-1-oxoethyl]-2-[5-[(3,4-dihydro-4-oxo-8-propyl-2H-1-benzopyran-7-yl)oxy]pentyloxy]benzenepropanoic Acid]", "Ki": 5}
{"smiles": "CCCc1c(OCCCCCOc2ccc3oc(C(=O)O)cc3c2)ccc2c1OCCC2=O", "note": "[Example 26, 5-[5-[(3,4-Dihydro-4-oxo-8-propyl-2H-1-benzopyran-7-yl)oxy]pentyloxy]-2-benzofurancarboxylic Acid]", "Ki": 270}
{"smiles": "CCCc1c(OCCCCCOc2cccc3cc(C(=O)O)oc23)ccc2c1OCCC2=O", "note": "[Example 19, 7-[5-[(3,4-Dihydro-4-oxo-8-propyl-2H-1-benzopyran-7-yl)oxy]pentyloxy]-2-benzofurancarboxylic Acid]", "Ki": 250}
{"smiles": "CCCc1ccc2c(c1OCCCCCOc1ccccc1CCC(=O)O)CCCC2=O", "note": "[Example 79, 2-[5-[(5-Oxo-2-propyl-5,6,7,8-tetrahydro-1-naphthalenyl)oxy]pentyloxy]benzenepropanoic Acid]", "Ki": 1500}
{"smiles": "CCCc1c(OCCCCCOc2ccc(C(=O)c3ccccc3CC(=O)O)cc2CCC(=O)O)ccc2c1OCCC2=O", "note": "[Example 95, 5-[[2-(Carboxymethyl)phenyl]carbonyl]-2-[5-[(3,4-dihydro-4-oxo-8-propyl-2H-1-benzopyran-7-yl)oxy]pentyloxy]benzenepropanoic Acid]", "Ki": 8}
{"smiles": "CCCc1c(OCCCCCOc2ccccc2CCC(=O)O)ccc2c1OCC2=O", "note": "[Example 40, 2-[5-[(2,3-Dihydro-3-oxo-7-propylbenzofuran-6-yl)oxy]pentyloxy]benzenepropanoic Acid]", "Ki": 75}
{"smiles": "CCCc1c(OCCCCCCCOc2ccc(C(=O)c3cccc(C(=O)O)c3)cc2CCC(=O)O)ccc2c1OCCC2=O", "note": "[Example 81, 5-[(3-Carboxyphenyl)carbonyl]-2-[7-[(3,4-dihydro-4-oxo-8-propyl-2H-1-benzopyran-7-yl)oxy]heptyloxy]benzenepropanoic Acid]", "Ki": 3}
{"smiles": "CCCc1c(OCCCCCc2ccccc2CCC(=O)O)ccc2c1OCCC2=O", "note": "[Example 8, 2-[5-[(3,4-Dihydro-4-oxo-8-propyl-2H-1-benzopyran-7-yl)oxy]pentyl]benzenepropanoic Acid]", "Ki": 63}
{"smiles": "CCCc1c(OCCCC/C=C/c2ccc(C(=O)c3cccc(C(=O)O)c3)cc2CCC(=O)O)ccc2c1OCCC2=O", "note": "[Example 101, (E)-5-[(3-Carboxyphenyl)carbonyl]-2-[6-[(3,4-dihydro-4-oxo-8-propyl-2H-1-benzopyran-7-yl)oxy]-1-hexenyl]benzenepropanoic Acid]", "Ki": 4}
{"smiles": "CCCc1c(OCCCCCCCCOc2ccc(C(=O)c3cccc(C(=O)O)c3)cc2CCC(=O)O)ccc2c1OCCC2=O", "note": "[Example 83, 5-[(3-Carboxyphenyl)carbonyl]-2-[8-[(3,4-dihydro-4-oxo-8-propyl-2H-1-benzopyran-7-yl)oxy]octyloxy]benzenepropanoic Acid]", "Ki": 3}
